Experimental findings from US20230348442A1, “GALECTIN-3 INHIBITING 2-HYDROXYCYCLOALKANE-1-CARBAMOYL DERIVATIVES” (Idorsia Pharmaceuticals Ltd, priority 2020, published 2023) are described below.

Chain of human Gal-3 (hGal-3) (P17931 whole entry): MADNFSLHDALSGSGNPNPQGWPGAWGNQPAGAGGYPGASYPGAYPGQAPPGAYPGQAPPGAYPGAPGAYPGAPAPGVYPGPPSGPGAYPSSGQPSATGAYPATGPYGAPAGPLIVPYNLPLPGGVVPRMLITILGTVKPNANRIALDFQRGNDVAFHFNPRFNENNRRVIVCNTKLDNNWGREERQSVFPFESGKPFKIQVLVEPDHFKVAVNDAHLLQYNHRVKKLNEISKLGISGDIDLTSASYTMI

The experiment deals with human Gal-3 (hGal-3) (Homo sapiens (Human), UniProt P17931). The experiment in a line: competitive binding assay: binding of biotinylated hGal-3 to microplate-adsorbed asialofetuin (ASF), spectrophotometric. Conditions: Activity on hGal-3; mean values of several measurements. Here is the method:
Evaluation of Compound Inhibitory Activity (IC50)
The inhibitory activity of compounds is determined in competitive binding assays. This spectrophotometric assay measures the binding of biotinylated human Gal-3 (hGal-3) or human Gal-1 (hGal-1), respectively, to a microplate-adsorbed glycoprotein, asialofetuin (ASF) (Proc Natl Acad Sci USA. 2013 Mar. 26; 110(13):5052-7.). Alternatively, and preferably, a human Gal-1 version in which all six cysteines are substituted by serines may be used.
Briefly, compounds are serially diluted in DMSO (working dilutions). ASF-coated 384 well plates are supplemented with 22.8 μL/well of biotinylated hGal-3 or hGal-1 in assay buffer (i.e. 300-1000 ng/mL biotinylated hGal-3 or hGal-1) to which 1.2 μL of compound working dilutions are added and mixed.
Plates are incubated for 3 hours at 4° C., then washed with cold assay buffer (3×50 uL), incubated for 1 hour with 25 μL/well of a streptavidin-peroxidase solution (diluted in assay buffer to 80 ng/mL) at 4° C., followed by further washing steps with assay buffer (3×50 uL). Finally, 25 μL/well of ABTS substrate is added.
The calculated IC50 values may fluctuate depending on the daily assay performance. Fluctuations of this kind are known to those skilled in the art. IC50 values from several measurements are given as mean values.
Consider `CO[C@@H]1[C@@H](n2cc(-c3cc(F)c(Cl)c(F)c3)nn2)[C@@H](O)[C@@H](CO)O[C@H]1C(=O)N(c1cc(Cl)cc(C#N)c1)[C@@H]1CC[C@H]1O` [Example 2.5.4R, (2R,3R,4S,5R,6R)-4-(4-(4-chloro-3,5-difluorophenyl)-1H-1,2,3-triazol-1-yl)-N-(3-chloro-5-cyanophenyl)-5-hydroxy-N-((1R,2R)-2-hydroxycyclobutyl)-6-(hydroxymethyl)-3-methoxytetrahydro-2H-pyran-2-carboxamide], for which the IC50 (commonly the point on the concentration scale where inhibition reaches its midpoint) amounted to 193 nM. As to `CO[C@@H]1[C@@H](n2cc(-c3cc(F)c(Cl)c(Cl)c3)nn2)[C@@H](O)[C@@H](CO)O[C@H]1C(=O)N(c1cc(Cl)cc(C#N)c1)[C@@H]1CCC[C@H]1O` [Example 1.17.4R, (2R,3R,4S,5R,6R)-N-(3-chloro-5-cyanophenyl)-4-(4-(3,4-dichloro-5-fluorophenyl)-1H-1,2,3-triazol-1-yl)-5-hydroxy-N-((1R,2R)-2-hydroxycyclopentyl)-6-(hydroxymethyl)-3-methoxytetrahydro-2H-pyran-2-carboxamide], the IC50 was 238 nM. With `CO[C@@H]1[C@@H](n2cc(-c3ccc(C)c(F)c3)nn2)[C@@H](O)[C@@H](CO)O[C@H]1C(=O)N(c1cc(Br)cc(C#N)c1)[C@@H]1CCC[C@H]1O` [Example 1.13.5R, (2R,3R,4S,5R,6R)-N-(3-bromo-5-cyanophenyl)-4-(4-(3-fluoro-4-methylphenyl)-1H-1,2,3-triazol-1-yl)-5-hydroxy-N-((1R,2R)-2-hydroxycyclopentyl)-6-(hydroxymethyl)-3-methoxytetrahydro-2H-pyran-2-carboxamide], the concentration for half-maximal inhibition (IC50) was found to be 167 nM. On to `CO[C@@H]1[C@@H](n2cc(-c3cc(F)c(Cl)c(Cl)c3)nn2)[C@@H](O)[C@@H](CO)O[C@H]1C(=O)N(c1cc(Cl)cc(C#N)c1)[C@H]1CC[C@@H]1O` [Example 2.17.4, (2R,3R,4S,5R,6R)-N-(3-chloro-5-cyanophenyl)-4-(4-(3,4-dichloro-5-fluorophenyl)-1H-1,2,3-triazol-1-yl)-5-hydroxy-N-((1S,2S)-2-hydroxycyclobutyl)-6-(hydroxymethyl)-3-methoxytetrahydro-2H-pyran-2-carboxamide], for which the IC50 amounted to 79.2 nM. The figure for `CO[C@@H]1[C@@H](n2cc(-c3cc(F)cc(Br)c3)nn2)[C@@H](O)[C@@H](CO)O[C@H]1C(=O)N(c1cc(C)cc(C#N)c1)[C@@H]1CCC[C@H]1O` [Example 1.10.8R, (2R,3R,4S,5R,6R)-4-(4-(3-bromo-5-fluorophenyl)-1H-1,2,3-triazol-1-yl)-N-(3-cyano-5-methylphenyl)-5-hydroxy-N-((1R,2R)-2-hydroxycyclopentyl)-6-(hydroxymethyl)-3-methoxytetrahydro-2H-pyran-2-carboxamide] is 1120 nM; for `CC(=O)O[C@@H]1[C@@H](n2cc(-c3cc(F)c(C)c(F)c3)nn2)[C@@H](O)[C@@H](CO)O[C@H]1C(=O)N(c1cc(Cl)cc(Cl)c1)[C@H]1CCC[C@@H]1O` [Example 1A.4.2, (2R,3R,4S,5R,6R)-2-((3,5-dichlorophenyl)((1S,2S)-2-hydroxycyclopentyl)carbamoyl)-4-(4-(3,5-difluoro-4-methylphenyl)-1H-1,2,3-triazol-1-yl)-5-hydroxy-6-(hydroxymethyl)tetrahydro-2H-pyran-3-yl acetate] it is 12.9 nM; for `CO[C@@H]1[C@@H](n2cc(-c3cc(F)cc(Br)c3)nn2)[C@@H](O)[C@@H](CO)O[C@H]1C(=O)N(c1cc(F)cc(C#N)c1)[C@@H]1CCC[C@H]1O` [Example 1.10.7R, (2R,3R,4S,5R,6R)-4-(4-(3-bromo-5-fluorophenyl)-1H-1,2,3-triazol-1-yl)-N-(3-cyano-5-fluorophenyl)-5-hydroxy-N-((1R,2R)-2-hydroxycyclopentyl)-6-(hydroxymethyl)-3-methoxytetrahydro-2H-pyran-2-carboxamide] it is 1030 nM. On to `CO[C@@H]1[C@@H](n2cc(-c3ccc(Cl)cc3)nn2)[C@@H](O)[C@@H](CO)O[C@H]1C(=O)N(c1cc(Cl)cc(C#N)c1)[C@H]1CCC[C@@H]1O` [Example 1.18.4, (2R,3R,4S,5R,6R)-N-(3-chloro-5-cyanophenyl)-4-(4-(4-chlorophenyl)-1H-1,2,3-triazol-1-yl)-5-hydroxy-N-((1S,2S)-2-hydroxycyclopentyl)-6-(hydroxymethyl)-3-methoxytetrahydro-2H-pyran-2-carboxamide], for which the IC50 worked out at 90.7 nM.

In the case of `CO[C@@H]1[C@@H](n2cc(-c3cc(F)c(F)c(F)c3)nn2)[C@@H](O)[C@@H](CO)O[C@H]1C(=O)N(c1cccc(I)c1)[C@@H]1CCC[C@H]1O` [Example 1.1.6R, (2R,3R,4S,5R,6R)-5-hydroxy-N-((1R,2R)-2-hydroxycyclopentyl)-6-(hydroxymethyl)-N-(3-iodophenyl)-3-methoxy-4-(4-(3,4,5-trifluorophenyl)-1H-1,2,3-triazol-1-yl)tetrahydro-2H-pyran-2-carboxamide], the half-maximal inhibitory concentration (IC50) amounted to 261 nM. As for `CC(=O)O[C@@H]1[C@@H](n2cc(-c3cc(F)c(F)c(F)c3)nn2)[C@@H](O)[C@@H](CO)O[C@H]1C(=O)N(c1cc(Cl)cc(Cl)c1)[C@H]1CC[C@@H]1O` [Example 2A.1.2, (2R,3R,4S,5R,6R)-2-((3,5-dichlorophenyl)((1S,2S)-2-hydroxycyclobutyl)carbamoyl)-5-hydroxy-6-(hydroxymethyl)-4-(4-(3,4,5-trifluorophenyl)-1H-1,2,3-triazol-1-yl)tetrahydro-2H-pyran-3-yl acetate], the figure is 29 nM; as for `CO[C@@H]1[C@@H](n2cc(-c3cc(F)cc(Cl)c3)nn2)[C@@H](O)[C@@H](CO)O[C@H]1C(=O)N(c1cc(Br)cc(C#N)c1)[C@H]1CCC[C@@H]1O` [Example 1.9.5, (2R,3R,4S,5R,6R)-N-(3-bromo-5-cyanophenyl)-4-(4-(3-chloro-5-fluorophenyl)-1H-1,2,3-triazol-1-yl)-5-hydroxy-N-((1S,2S)-2-hydroxycyclopentyl)-6-(hydroxymethyl)-3-methoxytetrahydro-2H-pyran-2-carboxamide], 22.9 nM. `CO[C@@H]1[C@@H](n2cc(-c3ccc(Br)c(F)c3F)nn2)[C@@H](O)[C@@H](CO)O[C@H]1C(=O)N(c1cc(Cl)cc(Cl)c1)[C@H]1CCC[C@@H]1O` [Example 1.12.2, (2R,3R,4S,5R,6R)-4-(4-(4-bromo-2,3-difluorophenyl)-1H-1,2,3-triazol-1-yl)-N-(3,5-dichlorophenyl)-5-hydroxy-N-((1S,2S)-2-hydroxycyclopentyl)-6-(hydroxymethyl)-3-methoxytetrahydro-2H-pyran-2-carboxamide] displayed a half-maximal inhibitory concentration (IC50) of 23.7 nM.

`CO[C@@H]1[C@@H](n2cc(-c3cc(F)c(F)c(F)c3)nn2)[C@@H](O)[C@@H](CO)O[C@H]1C(=O)N(c1cccc(I)c1)[C@@H]1CC[C@H]1O` [Example 2.1.6R, (2R,3R,4S,5R,6R)-5-hydroxy-N-((1R,2R)-2-hydroxycyclobutyl)-6-(hydroxymethyl)-N-(3-iodophenyl)-3-methoxy-4-(4-(3,4,5-trifluorophenyl)-1H-1,2,3-triazol-1-yl)tetrahydro-2H-pyran-2-carboxamide] yielded an IC50 of 232 nM. `CO[C@@H]1[C@@H](n2cc(-c3cc(F)c(Br)c(F)c3)nn2)[C@@H](O)[C@@H](CO)O[C@H]1C(=O)N(c1cc(Cl)cc(C#N)c1)[C@@H]1CCC[C@H]1O` [Example 1.6.4R, (2R,3R,4S,5R,6R)-4-(4-(4-bromo-3,5-difluorophenyl)-1H-1,2,3-triazol-1-yl)-N-(3-chloro-5-cyanophenyl)-5-hydroxy-N-((1R,2R)-2-hydroxycyclopentyl)-6-(hydroxymethyl)-3-methoxytetrahydro-2H-pyran-2-carboxamide]: the half-maximal inhibitory concentration (IC50) is 214 nM.

`CO[C@@H]1[C@@H](n2cc(-c3cc(F)c(F)c(F)c3)nn2)[C@@H](O)[C@@H](CO)O[C@H]1C(=O)N(c1cccc(Cl)c1)[C@H]1CC[C@@H]1O` [Example 2.1.1, (2R,3R,4S,5R,6R)-N-(3-chlorophenyl)-5-hydroxy-N-((1S,2S)-2-hydroxycyclobutyl)-6-(hydroxymethyl)-3-methoxy-4-(4-(3,4,5-trifluorophenyl)-1H-1,2,3-triazol-1-yl)tetrahydro-2H-pyran-2-carboxamide] returned an IC50 of 109 nM. As to `CO[C@@H]1[C@@H](n2cc(-c3cc(F)c(Br)c(F)c3)nn2)[C@@H](O)[C@@H](CO)O[C@H]1C(=O)N(c1cc(Cl)cc(C#N)c1)[C@@H]1CC[C@H]1O` [Example 2.6.4R, (2R,3R,4S,5R,6R)-4-(4-(4-bromo-3,5-difluorophenyl)-1H-1,2,3-triazol-1-yl)-N-(3-chloro-5-cyanophenyl)-5-hydroxy-N-((1R,2R)-2-hydroxycyclobutyl)-6-(hydroxymethyl)-3-methoxytetrahydro-2H-pyran-2-carboxamide], the IC50 came out at 174 nM. As for `CO[C@@H]1[C@@H](n2cc(-c3cc(F)c(Cl)c(F)c3)nn2)[C@@H](O)[C@@H](CO)O[C@H]1C(=O)N(c1cc(Cl)cc(C#N)c1)[C@@H]1CCC[C@H]1O` [Example 1.5.4R, (2R,3R,4S,5R,6R)-4-(4-(4-chloro-3,5-difluorophenyl)-1H-1,2,3-triazol-1-yl)-N-(3-chloro-5-cyanophenyl)-5-hydroxy-N-((1R,2R)-2-hydroxycyclopentyl)-6-(hydroxymethyl)-3-methoxytetrahydro-2H-pyran-2-carboxamide], the figure is 153 nM.
